Patent US11542302B2, “Modulators of melanocortin receptors for the treatment of depression and anxiety” (ARIZONA BOARD OF REGENTS ON BEHALF OF THE UNIVERSITY OF …, priority 2015, dated 2023)

Biological target: hMC5R (Homo sapiens, UniProt P33032)
Assay: hMC5R intracellular cAMP accumulation
Assay type: cell-based
Conditions: relative to MT-II

Chain of hMC5R (P33032 whole entry): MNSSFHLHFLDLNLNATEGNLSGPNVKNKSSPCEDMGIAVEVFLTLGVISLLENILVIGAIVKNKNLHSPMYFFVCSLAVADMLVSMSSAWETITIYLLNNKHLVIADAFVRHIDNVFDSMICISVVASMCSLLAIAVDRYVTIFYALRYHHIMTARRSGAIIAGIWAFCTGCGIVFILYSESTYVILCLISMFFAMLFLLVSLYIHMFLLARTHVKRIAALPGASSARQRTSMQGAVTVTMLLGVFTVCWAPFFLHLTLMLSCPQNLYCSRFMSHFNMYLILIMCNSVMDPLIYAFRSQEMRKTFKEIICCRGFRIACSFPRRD

- % Act at 10 μM (% of cAMP produced at 10 μM ligand concentration, in relation to MT-II): 0%
Compound: N=C(N)NCCC[C@@H]1NC(=O)[C@@H](Cc2ccccc2)NC(=O)[C@H](CC2CCCCC2)NC(=O)c2cc([N+](=O)[O-])ccc2SC[C@@H](C(N)=O)NC(=O)[C@H](Cc2c[nH]c3ccccc23)NC1=O [compound 2]
